In US20210145964A1, “STROMA-TARGETING TREATMENT FOR PATIENTS WITH ELEVATED ADAM12 LEVELS” (Academisch Medisch Centrum, priority 2019, published 2021) one finds overall survival data, which are given here for one compound.

The test system of the assay is metastatic adenocarcinoma of the pancreas. Nature of the assay: MPACT phase III trial, overall survival by plasma ADAM12 group. The note with it: poorest-outcome group: ADAM12 became detectable or increased at cycle 2.

SMILES strings stand for the structures.

Description: In the MPACT trial cohort, collection of plasma samples for biomarker development was optional and separate written consent was obtained for sample collection and biomarker analysis. […] All patients provided informed consent. […] Patients were randomized 1:1 (stratified by performance status, presence of liver metastases, and region) to receive nab-paclitaxel 125 mg/m^2 plus gemcitabine 1,000 mg/m^2 on days 1, 8, and 15 every 28 days or gemcitabine alone 1,000 mg/m^2 on days 1, 8, 15, 22, 29, 36, and 43 in 56 days (cycle 1) and then on days 1, 8, and 15 every 28 days (cycle≥2). Treatment continued until disease progression or unacceptable toxicity.
MPACT trial blood samples were collected in EDTA tubes to chelate calcium and prevent blood clotting, and storage at −80° C. until analysis. To allow the analysis of these plasma samples using the ADAM12 DuoSet ELISA, recalcification was required. […]
For the MPACT cohort, baseline ADAM12 values were categorized into undetectable (0) and detectable (>0). The fold change of ADAM12 at cycle 2, day 1 (C2D1) from baseline (cycle 1, day 1; C1D1) was calculated by the results at C2D1 divided by the value at C1D1. […] All eligible samples were measured and no power calculation was performed. Overall survival was analyzed using Kaplan-Meier method and log-rank test. […]

In turn, `Nc1ccn([C@@H]2O[C@H](CO)[C@@H](O)C2(F)F)c(=O)n1` [gemcitabine] yielded an overall survival of 6.9 months.
